# From patent publication US20220040129A1, “TREATMENT OF HYPERAMMONEMIA IN PATIENTS WITH RENAL INSUFFICIENCY” (RECORDATI S.p.A., priority 2019, published 2022)
# Read-outs that look alike come from different tables or passages of the source.
# How the values were obtained:
# [1] = tested on: plasma NH3; assay: Plasma NH3 reduction in Propensity Matching Score (PMS) Population; format: in vivo, human
# Description: Episodes treated with extracorporeal detoxification (HD, HF, PD) during the timeframe of the analysis were excluded. There were 12 patients in each group, and NH3 levels were measured in 12- and 24-hour periods over 120 hours. […] The two populations analyzed included: 1) Population with baseline plasma NH3 levels over 100 micromol/L in non-neonate or 150 micromol/L in neonate; 2) Propensity Matching Score (PMS) Population. […] These rates of decrease were confirmed to be statistically significant.
# [2] = tested on: plasma ammonia; assay: Retrospective review of NAGS deficiency patients: plasma ammonia levels; format: in vivo, human; settings: for Plasma ammonia, Mean (SD) / Plasma ammonia, Median / Plasma ammonia, Range: NAGS deficiency patients
# Description: Treatment with carglumic acid was divided in two regimens. For acute treatment, patients received a total daily dose of 100 mg/kg/day to 250 mg/kg/per day primarily administered in 2 to 4 divided doses for the first few days of treatment. For maintenance treatment, the dosage was reduced over time based on plasma ammonia level and clinical responses.
# Short-term efficacy was evaluated using mean and median change in plasma ammonia levels from baseline to days 1 to 3. Persistence of efficacy was evaluated using long-term mean and median change in plasma ammonia level.
# All 13 patients had abnormal plasma ammonia levels at baseline. […] Long-term efficacy was measured using the last reported plasma ammonia level for each of the 13 patients analyzed (median length of treatment was 6 years; range 1 to 16 years). The mean and median plasma ammonia levels were 23 micromol/L and 24 micromol/L, respectively, after a mean treatment duration of 8 years (Table 5).
# [3] = target: CYP2D6 (Homo sapiens, UniProt P10635); assay: In vitro CYP inhibition; format: in vitro ADME
# Sequence of CYP2D6 (P10635 whole entry): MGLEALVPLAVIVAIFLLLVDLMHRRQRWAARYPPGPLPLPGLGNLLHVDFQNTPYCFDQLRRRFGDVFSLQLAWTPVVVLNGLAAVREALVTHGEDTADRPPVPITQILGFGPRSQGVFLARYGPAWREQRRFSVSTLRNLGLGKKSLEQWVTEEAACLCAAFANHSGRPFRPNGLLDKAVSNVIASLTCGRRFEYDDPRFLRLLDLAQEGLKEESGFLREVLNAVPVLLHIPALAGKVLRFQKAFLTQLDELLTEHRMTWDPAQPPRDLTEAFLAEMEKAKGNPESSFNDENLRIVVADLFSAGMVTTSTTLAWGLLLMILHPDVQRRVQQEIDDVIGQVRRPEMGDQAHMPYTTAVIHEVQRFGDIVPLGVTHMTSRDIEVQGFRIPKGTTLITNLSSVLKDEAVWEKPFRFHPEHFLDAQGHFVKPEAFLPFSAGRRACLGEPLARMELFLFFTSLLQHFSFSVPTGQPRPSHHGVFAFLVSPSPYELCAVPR
# [4] = PK study comparing oral to IV CARBAGLU in 36 healthy volunteers; format: in vivo, human
# [5] = Population PK model (two-compartment, zero order absorption); set-up: species or system human; settings: value estimated in HVs, fixed in the model
# Description: A population PK model was developed using PK data collected from the PK study mentioned above. The data was collected after variable long treatment periods lasting more than a year in some cases, with different doses, and with different dosage regimens in both pediatric and adult volunteers (N=16).
# The sparse drug concentrations (24 PK samples) were fitted using a two-compartment model with zero order absorption rate, which was also used to describe the PK time course in the PK study.
# The final models for Clearance and Volume were:
# Wherein CL is the value of the clearance in a patient, CLt is the typical value of the clearance in adult subjects, WT is the body weight, TM50 is the maturation half time, g is the Hill coefficient and Vt is the typical value of the volume in adult subjects.
# [6] = clinical; settings: human, in vivo; for CL renal / clearance / half-life / Vd: both sexes; for clearance: Cl
# Description: The levels of CGA in plasma and urine were analysed using a fully validated method, which included LC-MS/MS analysis. The PK data were analysed based on a non-compartmental model. A model-based approach was implemented for the characterization of the PK properties of the IV formulation in order to estimate the level of PK exposure after different doses administered with different duration of infusion. The model outcomes provided rationales for supporting decision-making through the dose escalation process. The PK parameters were determined using SAS (version 9.3), and modelling of the PK data was performed using NONMEM (version 7.3, ICON Solutions). PART A: Mono-Centre, Randomized, Successive Groups, Double-Blind, Placebo-Controlled Study in Healthy Male and Female Subjects
# Part C was a randomized, double-blind, placebo-controlled study. It was conducted in five successive cohorts of 8 healthy male or female subjects each, for a total of 40 subjects. For each of the five cohorts, 6 subjects were administered CGA and 2 subjects received placebo. The study medication was administered IV, first as a loading dose and then as a maintenance dose. The dosage regimen was determined based both on the results of Part A and PK modelling.
# For the first three cohorts, three ascending doses of the study medication were administered IV as loading doses of 2.0, 3.0, and 3.6 mg/kg for 20 minutes, respectively, followed by maintenance doses of 2.5, 3.75 and 4.5 mg/kg/h given by IV infusion over a period of […]. For the fourth cohort, a dose of the IV formulation of CGA determined as being well tolerated was administered as a loading dose by IV infusion over 20 minutes, followed by a maintenance dose administered by IV infusion over a period of up to 12 hours. The 5th cohort received the study medication at the same dose and under the same conditions as the 4th cohort, except for the period during which the maintenance dose was administered, which lasted up to 24 hours.
# Blood sample for PK measurements were collected at 18 timepoints for the first three cohorts, and 20 timepoints for the 4th and 5th cohorts. These included a sample preceding the administration of the study medication, and the period from 20 minutes to 48 hours following the initiation of the IV infusion. Urine was also collected for PK measurements at the following intervals relative to the time of initiation of the IV infusion: 0-6, 6-12, 12-24, 24-36, and 36-48 hours. […]
# [7] = tested on: plasma NH3; assay: Retrospective review of PA, MMA, IVA decompensation episodes: plasma NH3 and clinical findings; format: in vivo, human
# Description: […] […] Plasma ammonia (NH3) levels were measured up to a maximum of 15 days from the start of treatment. […] Concomitant standard of care therapies included carnitine, arginine, hydroxocobalamin, biotin, thiamine, riboflavin and glucose.
# [8] = Pharmacokinetics in healthy subjects after oral administration (radiolabeled and non-radiolabeled); format: in vivo, human; settings: for half-life / CL renal: in vivo; for half-life / CL renal / Tmax: po
# [9] = Long-term (mean 8 years), last available value on treatment
# [10] = single radiolabeled oral dose of 100 mg/kg
smiles,measurement,setting,value
"NC(=O)N[C@@H](CCC(=O)O)C(=O)O [carglumic acid, N-carbamoyl-L-glutamic acid]",Reduction of mean plasma NH3 levels from baseline compared with NH3 Scav alone,"[1]; 12 patients per group, over 120 hours",consistent and meaningful reduction
same,Median reduction of plasma NH3,[1]; 24 hours post dose,61%
same,Differences in clinical response between adults and pediatric NAGS deficiency patients,[2]; 23 NAGS deficiency patients,no apparent differences
same,"Plasma ammonia, Mean (SD)",[2]; Day 1 of treatment,181 (358) micromole/L
same,"Plasma ammonia, Median",[2]; Day 1 of treatment,65 µmol/L
same,"Plasma ammonia, Range",[2]; Day 1 of treatment,25 to 1190 µmol/L
same,"Plasma ammonia, Mean (SD)",[2]; Day 2 of treatment,69 (78) micromole/L
same,"Plasma ammonia, Median",[2]; Day 2 of treatment,44 µmol/L
same,"Plasma ammonia, Range",[2]; Day 2 of treatment,11 to 255 µmol/L
same,"Plasma ammonia, Mean (SD)",[2]; Day 3 of treatment,27 (11) micromole/L
same,"Plasma ammonia, Median",[2]; Day 3 of treatment,25 µmol/L
same,"Plasma ammonia, Range",[2]; Day 3 of treatment,12 to 42 µmol/L
same,"Plasma ammonia, Mean (SD)",[2]; [9],23 µmol/L
same,"Plasma ammonia, Median",[2]; [9],24 µmol/L
same,"Plasma ammonia, Range",[2]; [9],9 to 34 µmol/L
same,"Plasma ammonia, Mean (SD)","[2]; Long-term (mean 8 years), last available value on treatment, listed as Carglumic Acid",23 (7) micromole/L
same,Plasma ammonia levels by day 3,"[2]; patients for whom data were available, normal range 5 to 50 micromol/L",normal plasma ammonia levels were attained
same,Inhibition of CYP2D6,[3],not an inhibitor
same,Mean fraction of the dose excreted in the urine,[4]; after IV administration,90%
same,Mean fraction of the dose excreted in the urine,[4]; after oral administration,7.5%
same,bioavailability,"[4]; human, in vivo, oral vs IV, 36 healthy volunteers, read-out: Mean absolute bioavailability",9.87%
same,"CLt, typical value of the clearance in adult subjects",[5],0.178
same,CL renal,"[6]; iv, Average renal clearance",4.83 mL/min/kg
same,clearance,"[6]; iv, Mean",5.33 mL/min/kg
same,clearance,"[6]; iv, Median",5.27 mL/min/kg
same,half-life,"[6]; iv, Mean",28.4 h
same,half-life,"[6]; iv, Median",28.5 h
same,CL renal,"[6]; iv, Renal Clearance, Mean",4.83 mL/min/kg
same,CL renal,"[6]; iv, Renal Clearance, Median",4.98 mL/min/kg
same,Vd,"[6]; iv, Mean",13 L/kg
same,Vd,"[6]; iv, Median",12.8 L/kg
same,"Ae (% of the dose excreted), Max","[6]; both, iv",111.412%
same,"Ae (% of the dose excreted), Mean","[6]; both, iv",84.478%
same,"Ae (% of the dose excreted), Median","[6]; both, iv",86.924%
same,"Ae (% of the dose excreted), Min","[6]; both, iv",38.756%
same,"Cl, Max","[6]; both, iv",7.3 mL/min/kg
same,"Cl, Min","[6]; both, iv",3.2 mL/min/kg
same,"Half-life, Max","[6]; both, iv",39.987 h
same,"Half-life, Min","[6]; both, iv",13.598 h
same,"Renal Clearance, Max","[6]; both, iv",8.5 mL/min/kg
same,"Renal Clearance, Min","[6]; both, iv",1.93 mL/min/kg
same,"Vd, Max","[6]; both, iv",19.689 L/kg
same,"Vd, Min","[6]; both, iv",3.897 L/kg
same,"Dose dependence of AUCinf, AUClast and Cmax",[6],increased linearly
same,Mean reduction in plasma NH3 levels from baseline,[7]; 36-48 hours from treatment initiation,−63%
same,Differences in plasma ammonia level reduction between pediatric and adult patients with PA or MMA,"[7]; 51 patients (27 PA, 24 MMA)",no apparent differences
same,Median change in the number of clinical findings from baseline to endpoint,"[7]; clinical, laboratory, neurological, psychiatric, respiratory findings and feeding difficulties",−4.0
same,Normalization of the neurological findings,"[7]; human, in vivo",50 % of episodes
same,24-hour urinary excretion,[8]; after oral administration,4.5 % of the dose
same,"Apparent total clearance, median",[8]; after oral administration,5.7 L/min
same,"Apparent volume of distribution, median",[8]; after oral administration,2657 L
same,"Apparent volume of distribution, median per kg",[8]; after oral administration,35.9 L/kg
same,"Apparent volume of distribution, range",[8]; after oral administration,1616 to 5797 L
same,half-life,"[8]; human, after oral administration, read-out: Initial half-life (converted)",~5.6 h
same,CL renal,"[8]; human, after oral administration, read-out: Renal clearance, median",290 mL/min
same,CL renal,"[8]; human, after oral administration, read-out: Renal clearance, range",204 to 445 mL/min
same,half-life,"[8]; human, after oral administration, read-out: Terminal half-life (converted)",~22 h
same,bioavailability,"[8]; human, plasma, 100 mg/kg, oral, read-out: Absolute bioavailability",9.9%
same,Tmax,"[8]; human, plasma, read-out: Tmax, median",3 h
same,Tmax,"[8]; human, plasma, read-out: Tmax, range",2 to 4 h
same,Dose excreted unchanged in the urine,[8]; [10],9 % of the dose
same,Dose recovered unchanged in the feces,[8]; [10],up to 60 % of the dose
